Assay results: patent publication US20260200979A1, “PEPTIDE FOR CARTILAGE REGENERATION, AND USES THEREOF” (CAREGEN CO., LTD., priority 2022, published 2026)
Ends that are not written are not given here.

System: human-derived chondrocytes (C28/I2, human chondrocyte cell line)
Assay: CCK-8 cytotoxicity assay
Format: cell-based
Settings: C28/I2 cells, different concentrations, 3 days, 450 nm
Method: The cytotoxicity of Peptide-1 or Peptide-2 upon addition to human-derived chondrocytes (C28/I2, human chondrocyte cell line) was analyzed using a CCK-8 assay.
Specifically, human-derived chondrocytes were seeded in a 96-well plate at a density of 3×10^3 cells/well and cultured in DMEM medium (cat. 11995-065, Gibco) for 24 hours. […] Meanwhile, as a negative control group, an experimental group to which the peptide was not added was used.

## KFLIK [Peptide-2, KFLIK]
  cytotoxicity (CCK-8 activity): did not exhibit toxicity

## PYYRI [Peptide-1, PYYRI]
  cytotoxicity (CCK-8 activity): did not exhibit toxicity
